A short description of series [1]: NOVARTIS: Cytotoxicity against human hepatocellular carcinoma cell line (Huh7). The note with it: Huh7 cells (hepatocellular carcinoma cell line). Type of series: toxicity, cell-based, Huh-7.
Series [2] relates to Plasmodium falciparum. Kind of series: NOVARTIS: Inhibition of Plasmodium falciparum W2 (drug-resistant) proliferation in erythrocyte-based infection assay. The following applies: Plasmodium falciparum, W2; read-out: EC50. Type of series: functional, organism-based.
Series [3] concerns Plasmodium falciparum. Kind of series: NOVARTIS: Inhibition of Plasmodium falciparum 3D7 (drug-susceptible) proliferation in erythrocyte-based infection assay. Type of series: functional, organism-based. The following applies: Plasmodium falciparum, 3D7.

A value given as a limit tells only on which side of the number the result lay.

The CC50 is the concentration that lowers cell viability or growth by half. Read a high CC50 as better tolerance by the cells. The term EC50 denotes the midpoint of the concentration-response curve. Take `CCN1CCCC1CNc1[nH]cnc2c3cc(F)ccc3nc1-2` (stereo not drawn): the CC50 in series [1] stood at 22400 nM. The concentration giving a half-maximal response (EC50) is 1260 nM with Plasmodium falciparum [2] and 808 nM with Plasmodium falciparum [3].
In series [1], `CC(C)(C)NC(=O)C(c1ccc(F)cc1)N(CCCN1CCOCC1)C(=O)c1ccc(-c2ccccc2)[nH]1` (stereo not drawn) displayed a cytotoxic concentration (CC50) of over 10000 nM. Also, the EC50 with Plasmodium falciparum [2] stood at 562 nM; in the series with Plasmodium falciparum [3] it was 1010 nM.
On the same counts, the results for `Cc1ccc(C2(C)CC(C)(C)N(C(=O)Cc3ccccc3)c3ccc(C(c4ccccc4)(c4ccccc4)c4ccccc4)cc32)cc1` (stereo not drawn) are over 100000 nM, 5680 nM and 4790 nM.
Turning to `CCC(c1nc2ccccc2c(=O)n1-c1ccc(Br)cc1)N(CCc1ccccc1)C(=O)c1cccc(C(F)(F)F)c1` (stereo not drawn), in series [1], the CC50 was over 10000 nM. The EC50 in the series with Plasmodium falciparum [2] was 545 nM; in the series with Plasmodium falciparum [3] it was 871 nM.
As to `CCCCc1ccc(C(=O)N(CCc2ccccc2)C(CC)c2nc3ccccc3c(=O)n2-c2ccccc2OC)cc1` (stereo not drawn), the CC50 in series [1] was over 6270 nM. Moreover, the EC50 in the series on Plasmodium falciparum [2] worked out at 354 nM; in the series with Plasmodium falciparum [3], 311 nM.
On the same counts, the results for `CCCCCc1ccc(C(=O)N(CCCC(C)Nc2cc(OC)cc3cccnc23)Cc2ccc(OC)c(OC)c2)cc1` (stereo not drawn) are 5030 nM, 284 nM and 514 nM.
On the same counts, the results for `Oc1ccc(Nc2nc(NCc3ccco3)c3ccccc3n2)cc1` are 19700 nM, 1110 nM and 86.1 nM.
As for `COc1c(N2CCN(Cc3c(C)cc(C)cc3C)CC2)c2nc3oc2c2c(OC(=O)C(C)(C)C)c(C)c4c(c12)[C@@H](O)[C@@](C)(OC=C[C@H](OC)[C@@H](C)[C@@H](OC(C)=O)C(C)[C@H](O)[C@H](C)[C@@H](O)C(C)C=CC=C3C)O4` (stereo partly drawn), the CC50 in series [1] is over 10000 nM. Moreover, the EC50 in the series with Plasmodium falciparum [2] came to 554 nM; in the series with Plasmodium falciparum [3], 221 nM.
For the compound `CN(C)CCNC(=O)COc1ccc(-c2nc3ccccc3s2)cc1CN(C)C`, the CC50 in series [1] is over 10000 nM. The EC50 with Plasmodium falciparum [2] came out at 557 nM; in the series on Plasmodium falciparum [3], 622 nM.
The like results for `CC(C)N1CC[C@@H](N2CCN(c3cccc(C(F)(F)F)c3)CC2)[C@@H](CCC(=O)N(C)C2CCN(C)CC2)C1` were, in that order, 5130 nM, 285 nM and over 1040 nM.
The like results for `O=C(NN=CC1CC=CCC1)c1ccc([N+](=O)[O-])cc1Cl` (stereo not drawn) were, in that order, over 10000 nM, over 549 nM and over 1250 nM.
In series [1], `NNC(=O)C1CCCN1S(=O)(=O)c1ccc(Cl)cc1` (stereo not drawn) had a CC50 of over 10000 nM. Also, the results for the EC50 in the series on Plasmodium falciparum [2] and in the series with Plasmodium falciparum [3] were 547 nM and 564 nM, respectively.
Regarding `COc1cc(C(=O)N2CCN(Cc3cccc(Br)c3)CC2)cc(OC)c1OC`, the CC50 in series [1] was over 100000 nM. Moreover, the EC50 was 5580 nM in the series on Plasmodium falciparum [2] and over 12500 nM in the series with Plasmodium falciparum [3].
Turning to `CC1=C(C(=O)Nc2ccccn2)C(c2ccc(O)cc2)n2ncnc2N1` (stereo not drawn), the half-maximal cytotoxic concentration (CC50) in series [1] is over 10000 nM. The EC50 in the series with Plasmodium falciparum [2] was 561 nM; in the series with Plasmodium falciparum [3], over 1250 nM.
On the same counts, the results for `Cc1sc2nc(C3CC3)n(C3CCN(C(=O)C4CC=CCC4)CC3)c(=O)c2c1C` (stereo not drawn) are over 10000 nM, over 560 nM and over 1250 nM.
The like results for `COc1cc(/C=C(\C#N)c2nc3ccccc3[nH]2)ccc1OCc1ccc(Cl)cc1` were, in that order, over 10000 nM, 558 nM and 321 nM.
On to `C=C[C@H]1CN2CC[C@H]1C[C@H]2[C@H](OC(=O)c1ccc(Cl)cc1)c1ccnc2ccccc12`, for which the CC50 in series [1] is over 10000 nM. For the same compound, the EC50 in the series on Plasmodium falciparum [2] worked out at 564 nM; in the series on Plasmodium falciparum [3], 412 nM.
`CCOC(=O)C1=NNC2C(=O)N(c3cccc(C)c3C)C(=O)C12` (stereo not drawn) displayed a CC50 in series [1] of over 10000 nM. Besides, the EC50 in the series on Plasmodium falciparum [2] is 563 nM; with Plasmodium falciparum [3] it was over 1250 nM.
On the same counts, the results for `CCCC(=O)N1CCN(C(=O)c2nc(-c3ccccc3)nc(C(C)C)c2C(=O)OC)CC1C` (stereo not drawn) are over 8440 nM, 475 nM and 880 nM.
Take `COc1ccc(N(CC(=O)NCCc2ccc(F)cc2)S(=O)(=O)c2ccccc2)cc1`: the CC50 in series [1] is over 100000 nM. The EC50 with Plasmodium falciparum [2] is 5620 nM; with Plasmodium falciparum [3], over 12500 nM.
The like results for `CCOc1ccc2c(c1)sc(=NC(=O)Nc1ccc(OC)cc1)n2C` were, in that order, 17800 nM, 997 nM and over 8300 nM.
The like results for `CCOc1ccccc1-n1c(SCC(=O)c2ccc(Cl)cc2)nc2[nH]ncc2c1=O` were, in that order, 73000 nM, 4020 nM and over 12500 nM.
Consider `CCN1CCC(N2C[C@H](n3cc(C(=O)OC)nn3)C[C@H]2C(=O)NCc2cccc(C(F)(F)F)c2)CC1`, for which, in series [1], the CC50 is over 10000 nM. Further, the half-maximal effective concentration (EC50) was over 563 nM in the series with Plasmodium falciparum [2] and over 1250 nM in the series on Plasmodium falciparum [3].
On the same counts, the results for `O=C(C1CCCCN1)N1CC(c2ccccc2)c2ccccc2C1CN1CCCCC1` (stereo not drawn) are 4680 nM, 257 nM and 439 nM.
The like results for `Cc1ccccc1OCC(O)Cn1c(NC2CCCCC2)nc2c1c(=O)[nH]c(=O)n2C` (stereo not drawn) were, in that order, over 10000 nM, 549 nM and over 1700 nM.
In series [1], `O=C(Nc1ccc2c(c1)CN(C1CCSCC1)CC2)C1(c2ccccc2)CC1` had a CC50 of over 100000 nM. Besides, the half-maximal effective concentration (EC50) was over 5530 nM in the series on Plasmodium falciparum [2] and over 12500 nM in the series on Plasmodium falciparum [3].
On the same counts, the results for `COc1ccc(C(=O)N(C)CCCNc2ccnc3cc(Cl)ccc23)cc1` are over 10000 nM, 553 nM and 797 nM.
The like results for `CCN1/C(=C/c2sc3ccc(OC)cc3[n+]2CC)C=Cc2cc(OC)ccc21` were, in that order, over 10000 nM, 552 nM and 527 nM.
For `CCOC(=O)C1=C(N)N(c2cccc([N+](=O)[O-])c2)C2=C(C(=O)CC(C)(C)C2)C1c1ccc(Cl)cc1` (stereo not drawn), in series [1], the CC50 was over 100000 nM. The EC50 in the series on Plasmodium falciparum [2] was 5550 nM; with Plasmodium falciparum [3], 6140 nM.
For the compound `COc1cc(NC(C)CCCN(Cc2ccccc2OC)C(=O)C(Cl)Cl)c2ncccc2c1` (stereo not drawn), in series [1], the CC50 is over 10000 nM. The figures for the EC50 in the series on Plasmodium falciparum [2] and with Plasmodium falciparum [3] were 554 nM and over 1500 nM, respectively.
On the same counts, the results for `CCC(=O)N1CCc2cc(Br)cc(S(=O)(=O)N3CCCCC3CC)c21` (stereo not drawn) are over 100000 nM, 5700 nM and 9980 nM.
The like results for `Cc1cc2c(cc1S(=O)(=O)N(C)C1CCCCC1)OCC(=O)N2` were, in that order, over 10000 nM, over 569 nM and over 1250 nM.
Compound `OCCN(CCO)CC(O)Cn1c2ccc(Br)cc2c2cc(Br)ccc21` (stereo not drawn) returned a half-maximal cytotoxic concentration (CC50) in series [1] of 27300 nM. For the same compound, the 50% effective concentration (EC50) with Plasmodium falciparum [2] stood at 1550 nM; in the series with Plasmodium falciparum [3], 2330 nM.
On the same counts, the results for `Nc1nc(NCC2CCC(CNS(=O)(=O)c3cccc4ccccc34)CC2)nc2ccccc12` (stereo not drawn) are over 10000 nM, 571 nM and 684 nM.
`CCCCn1c(=N)c(C(=O)NC(C)c2ccccc2)cc2c(=O)n3cccc(C)c3nc21` (stereo not drawn) registered a cytotoxic concentration (CC50) in series [1] of over 100000 nM. Besides, the EC50 in the series on Plasmodium falciparum [2] is over 5680 nM; in the series on Plasmodium falciparum [3] it was 1380 nM.
On the same counts, the results for `O=C(Cn1c2ccccc2c(=O)c2cc([N+](=O)[O-])ccc21)Nc1ccc(F)c(Cl)c1` are over 100000 nM, 5670 nM and over 12500 nM.
With `c1ccc(OCCOc2ccc(Nc3c4ccccc4nc4ccccc34)cc2)cc1`, the CC50 in series [1] was determined as 6120 nM. Further, the EC50 in the series on Plasmodium falciparum [2] is 347 nM; with Plasmodium falciparum [3], 505 nM.
The like results for `CCCN(Cc1cc(OC)c2c(c1)OCO2)CC1CC1` were, in that order, over 10000 nM, 566 nM and over 1720 nM.
Regarding `O=C(NCCCCNc1ccnc2cc(Cl)ccc12)c1ccc([N+](=O)[O-])cc1`, the CC50 in series [1] is over 10000 nM. The EC50 in the series on Plasmodium falciparum [2] turned out to be 565 nM; with Plasmodium falciparum [3] it was 486 nM.
Take `CCC(=O)NCc1nnc(SCc2cccc(C(F)(F)F)c2)n1-c1cccc(OC)c1`: the CC50 in series [1] is over 100000 nM. Moreover, the EC50 with Plasmodium falciparum [2] is 5610 nM; in the series with Plasmodium falciparum [3], over 12500 nM.
The like results for `O=C(NC1CCCCC1)c1noc2c1CCCCC2` were, in that order, over 100000 nM, 5670 nM and over 12500 nM.
Take `CCCCCCN(C(=O)c1cccc([N+](=O)[O-])c1)C(CC)c1nc2ccccc2c(=O)n1-c1ccccc1OC` (stereo not drawn): in series [1], the CC50 is over 6450 nM. Also, the EC50 in the series with Plasmodium falciparum [2] amounted to 355 nM; with Plasmodium falciparum [3], 983 nM.
The like results for `O=C(/C=C/c1ccc(-c2cccc([N+](=O)[O-])c2)o1)Nc1nccs1` were, in that order, over 10000 nM, over 570 nM and over 1250 nM.
The like results for `C=CC[n+]1ccc(/C=C/c2ccccc2)c(C)c1` were, in that order, over 10000 nM, 558 nM and 656 nM.
Turning to `CCOc1cc(S(=O)(=O)N2CCCC3(CCCCC3)C2)c(OCC)cc1-n1cnnn1`, in series [1], the CC50 was over 10000 nM. The EC50 was over 563 nM with Plasmodium falciparum [2] and over 1250 nM in the series with Plasmodium falciparum [3].
Compound `CCCCCCN(C(=O)c1ccc2ccccc2c1)C(CC)c1nc2ccccc2c(=O)n1-c1ccc(F)cc1` (stereo not drawn) yielded a half-maximal cytotoxic concentration (CC50) in series [1] of over 10000 nM. Also, the EC50 was determined as 548 nM in the series on Plasmodium falciparum [2] and 454 nM in the series on Plasmodium falciparum [3].
On the same counts, the results for `Cc1cc(/C=C2/SC(=Nc3ccccc3)NC2=O)c(C)n1-c1cccc([N+](=O)[O-])c1` are over 10000 nM, 556 nM and 395 nM.
On the same counts, the results for `C[n+]1cccc(/C=C2/c3ccccc3-c3ncccc32)c1` are over 10000 nM, 555 nM and 809 nM.
On the same counts, the results for `CCN(CC)CCCNC(=S)N(Cc1ccccc1)Cc1cc2cc(C)c(Cl)cc2[nH]c1=O` are 20900 nM, 1160 nM and 1940 nM.
In turn, `CCCN(C(=O)Nc1c(C(C)C)cccc1C(C)C)C(CC)c1nc2ccccc2c(=O)n1-c1cccc(C)c1` (stereo not drawn) gave a CC50 in series [1] of 80900 nM. Further, the values for the half-maximal effective concentration (EC50) in the series with Plasmodium falciparum [2] and with Plasmodium falciparum [3] were 4580 nM and 3170 nM, respectively.
In series [1], `CCc1c(C(=O)N2CCN(C(=O)CCl)C(C)C2)cnn1-c1nc(-c2ccc(Br)cc2)cs1` (stereo not drawn) yielded a CC50 of over 8660 nM. The values for the EC50 in the series with Plasmodium falciparum [2] and with Plasmodium falciparum [3] were 481 nM and 656 nM, respectively.

The values are drawn from ChEMBL document CHEMBL1156829 (Proc Natl Acad Sci U S A, 2008).
